Laboratory results from PubChem BioAssay AID1963975 (Molecular Pharmacology Branch, DTP, NCI, 2024).

System: 624824-186-R-J2-PDC multicell spheroids, viability
Assay: Anticancer human tumor 624824-186-R-J2-PDC patient-derived colon adenocarcinoma cell line growth inhibition [PI3K]
Conditions: for viability, T/C: stronger effect = lower value
Method in brief: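 Targeted small molecules plus PI3K inhibitors, half-log dose series from Cmax (default top 10 microM), were applied to heterotypic spheroids of cancer cells with HUVEC and MSCs. Viability indicated growth inhibition.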

[1] = curve of first compound, second compound 0.00316 µM
[2] = curve of first compound, second compound 0.01 µM
[3] = curve of first compound, second compound 0.0316 µM
[4] = curve of first compound, second compound 0.1 µM
[5] = curve of first compound, second compound 0.316 µM
[6] = curve of first compound, second compound 1 µM
[7] = second compound 0.00316 µM, first compound 0.0316 µM
[8] = second compound 0.00316 µM, first compound 0.1 µM
[9] = second compound 0.00316 µM, first compound 0.316 µM
[10] = second compound 0.00316 µM, first compound 1 µM
[11] = second compound 0.00316 µM, first compound 3.16 µM
[12] = second compound 0.00316 µM, first compound 10 µM
[13] = second compound 0.01 µM, first compound 0.0316 µM
[14] = second compound 0.01 µM, first compound 0.1 µM
[15] = second compound 0.01 µM, first compound 0.316 µM
[16] = second compound 0.01 µM, first compound 1 µM
[17] = second compound 0.01 µM, first compound 3.16 µM
[18] = second compound 0.01 µM, first compound 10 µM
[19] = second compound 0.0316 µM, first compound 0.0316 µM
[20] = second compound 0.0316 µM, first compound 0.1 µM
[21] = second compound 0.0316 µM, first compound 0.316 µM
[22] = second compound 0.0316 µM, first compound 1 µM
[23] = second compound 0.0316 µM, first compound 3.16 µM
[24] = second compound 0.0316 µM, first compound 10 µM
[25] = second compound 0.1 µM, first compound 0.0316 µM
[26] = second compound 0.1 µM, first compound 0.1 µM
[27] = second compound 0.1 µM, first compound 0.316 µM
[28] = second compound 0.1 µM, first compound 1 µM
[29] = second compound 0.1 µM, first compound 3.16 µM
[30] = second compound 0.1 µM, first compound 10 µM
[31] = second compound 0.316 µM, first compound 0.0316 µM
[32] = second compound 0.316 µM, first compound 0.1 µM
[33] = second compound 0.316 µM, first compound 0.316 µM
[34] = second compound 0.316 µM, first compound 1 µM
[35] = second compound 0.316 µM, first compound 3.16 µM
[36] = second compound 0.316 µM, first compound 10 µM
[37] = second compound 1 µM, first compound 0.0316 µM
[38] = second compound 1 µM, first compound 0.1 µM
[39] = second compound 1 µM, first compound 0.316 µM
[40] = second compound 1 µM, first compound 1 µM
[41] = second compound 1 µM, first compound 3.16 µM
[42] = second compound 1 µM, first compound 10 µM
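Also: spheroids exposed to agents for 7 days before viability read.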
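For viability, T/C in this document: 100% = DMSO vehicle treated spheroids.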

In the case of Cn1nccc1Nc1nccc(-c2ccn(C(CO)c3ccc(Cl)c(F)c3)c(=O)c2)n1 (stereo unspecified) + CC(Nc1ccc2c(c1)OCCn1cc(N3C(=O)OCC3C(F)F)nc1-2)C(N)=O, the IC50 [1] is reported as over 10 µM, the IC50 [2] is reported as over 10 µM and the IC50 [3] is reported as over 10 µM. For the same compound, the IC50 [4] was over 10 µM, the IC50 [5] was over 10 µM and the IC50 [6] was 1.33 µM. For the same compound, the viability, T/C [7] was 79.4%, the viability, T/C [8] was 78.9% and the viability, T/C [9] was 80.1%. For the same compound, the viability, T/C [10] was 84.7%, the viability, T/C [11] was 104% and the viability, T/C [12] was 99.5%. For the same compound, the viability, T/C [13] was 80.5%, the viability, T/C [14] was 73.6% and the viability, T/C [15] was 77.6%. For the same compound, the viability, T/C [16] was 90.5%, the viability, T/C [17] was 102% and the viability, T/C [18] was 116%. The viability, T/C [19] was 79%, the viability, T/C [20] was 71.8% and the viability, T/C [21] was 72%. The viability, T/C [22] was 91.6%, the viability, T/C [23] was 86.6% and the viability, T/C [24] was 93.2%. For the same compound, the viability, T/C [25] was 87.5%, the viability, T/C [26] was 61.4% and the viability, T/C [27] was 68.8%. It also gave a viability, T/C [28] of 95.6%, a viability, T/C [29] of 84.9% and a viability, T/C [30] of 59%. The viability, T/C [31] was 63%, the viability, T/C [32] was 63.5% and the viability, T/C [33] was 68.6%. It also gave a viability, T/C [34] of 73.7%, a viability, T/C [35] of 63.9% and a viability, T/C [36] of 40.4%. It also gave a viability, T/C [37] of 73.1%, a viability, T/C [38] of 86.4% and a viability, T/C [39] of 61%. For the same compound, the viability, T/C [40] was 52.9%, the viability, T/C [41] was 42.5% and the viability, T/C [42] was 29%.

Work on CCN1CCN(Cc2ccc(Nc3ncc(F)c(-c4cc(F)c5nc(C)n(C(C)C)c5c4)n3)nc2)CC1 + CC(Nc1ccc2c(c1)OCCn1cc(N3C(=O)OCC3C(F)F)nc1-2)C(N)=O yielded an IC50 [1] of over 1 µM, an IC50 [2] of over 1 µM and an IC50 [3] of over 1 µM. It also gave an IC50 [4] of over 1 µM, an IC50 [5] of over 1 µM and an IC50 [6] of over 1 µM. It also gave a viability, T/C (second compound 0.00316 µM, first compound 0.00316 µM) of 92.9%, a viability, T/C (second compound 0.00316 µM, first compound 0.01 µM) of 87.8% and a viability, T/C [7] of 80.5%. For the same compound, the viability, T/C [8] was 105%, the viability, T/C [9] was 91.5% and the viability, T/C [10] was 118%. The viability, T/C (second compound 0.01 µM, first compound 0.00316 µM) was 97.7%, the viability, T/C (second compound 0.01 µM, first compound 0.01 µM) was 98.2% and the viability, T/C [13] was 114%. The viability, T/C [14] was 89.2%, the viability, T/C [15] was 92.1% and the viability, T/C [16] was 106%. The viability, T/C (second compound 0.0316 µM, first compound 0.00316 µM) was 77.1%, the viability, T/C (second compound 0.0316 µM, first compound 0.01 µM) was 86.4% and the viability, T/C [19] was 83.5%. For the same compound, the viability, T/C [20] was 76.3%, the viability, T/C [21] was 97.8% and the viability, T/C [22] was 105%. The viability, T/C (second compound 0.1 µM, first compound 0.00316 µM) was 93.4%, the viability, T/C (second compound 0.1 µM, first compound 0.01 µM) was 77.6% and the viability, T/C [25] was 86.4%. It also gave a viability, T/C [26] of 77.3%, a viability, T/C [27] of 89.4% and a viability, T/C [28] of 119%. The viability, T/C (second compound 0.316 µM, first compound 0.00316 µM) was 102%, the viability, T/C (second compound 0.316 µM, first compound 0.01 µM) was 89% and the viability, T/C [31] was 87.2%. It also gave a viability, T/C [32] of 92.4%, a viability, T/C [33] of 90.1% and a viability, T/C [34] of 105%. The viability, T/C (second compound 1 µM, first compound 0.00316 µM) was 85.6%, the viability, T/C (second compound 1 µM, first compound 0.01 µM) was 83.7% and the viability, T/C [37] was 90.9%. For the same compound, the viability, T/C [38] was 85.8%, the viability, T/C [39] was 87.2% and the viability, T/C [40] was 96.3%.

Cn1nccc1Nc1nccc(-c2ccn(C(CO)c3ccc(Cl)c(F)c3)c(=O)c2)n1 (stereo unspecified) was tested, and the viability, T/C (compound 0.0316 µM) was 88.9% [middle of 4 runs], the viability, T/C (compound 0.316 µM) was 72.8% [middle of 4 runs] and the viability, T/C (compound 1 µM) was 94% [middle of 4 runs]. The viability, T/C (compound 3.16 µM) was 91.2% [middle of 4 runs] and the IC50 (curve of compound) was over 10 µM.

CC1(C)CCC(CN2CCN(c3ccc(C(=O)NS(=O)(=O)c4ccc(NCC5CCOCC5)c([N+](=O)[O-])c4)c(Oc4cnc5[nH]ccc5c4)c3)CC2)=C(c2ccc(Cl)cc2)C1 + CC(Nc1ccc2c(c1)OCCn1cc(N3C(=O)OCC3C(F)F)nc1-2)C(N)=O gave an IC50 [1] of over 10 µM, an IC50 [2] of over 10 µM and an IC50 [3] of over 10 µM. For the same compound, the IC50 [4] was over 10 µM, the IC50 [5] was over 10 µM and the IC50 [6] was over 10 µM. The viability, T/C [7] was 88.5%, the viability, T/C [8] was 86.8% and the viability, T/C [9] was 104%. The viability, T/C [10] was 96.9%, the viability, T/C [11] was 89.1% and the viability, T/C [12] was 77.4%. For the same compound, the viability, T/C [13] was 93.3%, the viability, T/C [14] was 81.3% and the viability, T/C [15] was 123%. It also gave a viability, T/C [16] of 93.7%, a viability, T/C [17] of 75.5% and a viability, T/C [18] of 69%. For the same compound, the viability, T/C [19] was 81.4%, the viability, T/C [20] was 90.5% and the viability, T/C [21] was 99.9%. For the same compound, the viability, T/C [22] was 72.7%, the viability, T/C [23] was 74.5% and the viability, T/C [24] was 79.1%. It also gave a viability, T/C [25] of 72.7%, a viability, T/C [26] of 66.9% and a viability, T/C [27] of 79.1%. The viability, T/C [28] was 66.9%, the viability, T/C [29] was 81.1% and the viability, T/C [30] was 56.6%. It also gave a viability, T/C [31] of 79.6%, a viability, T/C [32] of 74.2% and a viability, T/C [33] of 94.9%. The viability, T/C [34] was 77.4%, the viability, T/C [35] was 79.1% and the viability, T/C [36] was 63%. For the same compound, the viability, T/C [37] was 87.1%, the viability, T/C [38] was 93.3% and the viability, T/C [39] was 79.3%. For the same compound, the viability, T/C [40] was 86%, the viability, T/C [41] was 94.4% and the viability, T/C [42] was 77.8%.
